Results on one compound are retold here after ChEMBL document CHEMBL5113476, “The protective effects of natural product tunicatachalcone against neuroinflammation via targeting RIPK2 in microglia BV-2 cells stimulated by LPS” (Bioorg Med Chem, 2022).

Data set [1] deals with Receptor-interacting serine/threonine-protein kinase 2 (Mus musculus) (UniProt P58801). As to the kind of experiment: Binding affinity to RIPK2 in mouse BV-2 cells measured by Cellular thermal shift assay (CETSA). It counts as cell-based.
The subject of data set [2] is BV-2. As to the kind of experiment: Anti-neuroinflammatory activity in mouse BV-2 cells assessed as reduction in LPS-stimulated IL-6 production at 5 to 20 uM measured after 8 hrs by ELISA. It counts as functional, cell-based. The conditions noted are these: dose 5-20 µM, DDE = dose-dependent effect.
Data set [3] has as its target T1, Receptor-interacting serine/threonine-protein kinase 2 (Homo sapiens, UniProt O43353). The data set is described as follows: Binding affinity to recombinant RIPK2 (unknown origin) measured by microscale thermophoresis (MST) assay. On the technique in general: MST reads how a fluorescent partner responds to local heating, with and without ligand.
Data set [4] has as its system BV-2. As to the kind of experiment: Anti-neuroinflammatory activity in mouse BV-2 cells assessed as inhibition of LPS-induced NO production at 5 to 20 uM measured after 24 hrs. It counts as functional, cell-based. The conditions noted are these: dose 5-20 µM, DDE = dose-dependent effect.
Data set [5] has as its target T1, Receptor-interacting serine/threonine-protein kinase 2. The data set is described as follows: Binding affinity to recombinant RIPK2 (unknown origin) measured by surface plasmon resonance analysis.
For data set [6], the system named is BV-2. The data set is described as follows: Cytotoxicity against mouse BV-2 cells at 12.5 to 50 uM measured after 24 hrs by MTT assay. It counts as toxicity, cell-based. The conditions noted are these: bv-2, 24 h, dose 12.5-50 µM. (In general: Tetrazolium assays rely on reduction of a dye to a coloured formazan, in cell work by metabolically active cells.)
The test system of data set [7] is BV-2. The data set is described as follows: Anti-neuroinflammatory activity in mouse BV-2 cells assessed as reduction in LPS-stimulated TNF-alpha production at 5 to 20 uM measured after 4 hrs by ELISA. It counts as functional, cell-based. The conditions noted are these: dose 5-20 µM, DDE = dose-dependent effect.

Calls of active or inactive are those of the source. The rule behind the calls is not given here.

T1 sequence (O43353 whole entry): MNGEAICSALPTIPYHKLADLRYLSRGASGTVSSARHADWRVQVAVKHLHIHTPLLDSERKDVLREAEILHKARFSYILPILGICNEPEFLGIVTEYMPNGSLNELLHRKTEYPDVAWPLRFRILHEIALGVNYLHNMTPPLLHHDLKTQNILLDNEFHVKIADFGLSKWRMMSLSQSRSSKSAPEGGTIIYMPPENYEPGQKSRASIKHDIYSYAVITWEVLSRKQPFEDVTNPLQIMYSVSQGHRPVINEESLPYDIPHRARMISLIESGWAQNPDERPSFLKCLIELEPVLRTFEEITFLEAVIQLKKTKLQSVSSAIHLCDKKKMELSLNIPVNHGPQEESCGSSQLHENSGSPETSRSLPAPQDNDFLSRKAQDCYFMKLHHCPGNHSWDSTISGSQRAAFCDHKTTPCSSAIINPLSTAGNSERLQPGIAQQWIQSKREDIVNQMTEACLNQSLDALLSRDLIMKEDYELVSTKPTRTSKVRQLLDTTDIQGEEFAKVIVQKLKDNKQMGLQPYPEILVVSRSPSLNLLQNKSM
Receptor-interacting serine/threonine-protein kinase 2 (Mus musculus), sequence (P58801 whole entry): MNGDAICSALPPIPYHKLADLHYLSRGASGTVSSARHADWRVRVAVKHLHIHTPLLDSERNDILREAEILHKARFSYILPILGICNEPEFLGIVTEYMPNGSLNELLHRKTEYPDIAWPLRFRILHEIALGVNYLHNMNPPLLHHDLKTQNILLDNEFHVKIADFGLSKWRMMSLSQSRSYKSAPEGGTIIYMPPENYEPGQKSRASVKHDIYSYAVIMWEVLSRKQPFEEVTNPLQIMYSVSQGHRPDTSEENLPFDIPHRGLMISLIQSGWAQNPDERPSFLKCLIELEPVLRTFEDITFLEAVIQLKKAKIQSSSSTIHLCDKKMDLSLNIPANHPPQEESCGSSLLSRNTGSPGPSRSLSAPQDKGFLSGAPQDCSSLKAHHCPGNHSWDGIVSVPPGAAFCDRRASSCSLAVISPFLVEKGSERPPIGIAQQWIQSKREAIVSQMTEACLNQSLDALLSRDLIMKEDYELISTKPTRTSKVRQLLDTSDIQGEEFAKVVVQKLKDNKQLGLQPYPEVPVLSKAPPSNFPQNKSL

In the case of `COC1=CC(=O)C(CC=C(C)C)(CC=C(C)C)C(=O)/C1=C(O)/C=C/c1ccccc1`, the result in data set [1] was Active. Besides, the Activity result in data set [2] is “Dde”; in data set [4], “Dde”; in data set [6], “Non-Toxic”; in data set [7] it was “Dde”. The figures for the Kd in data set [3] and in data set [5] were 1 µM and 5.36 µM, respectively.
